The target in data set [1] is T1, hP2X7 (Homo sapiens, UniProt Q99572).
T1 construct: 1321N1 cells stably expressing the full length human P2X7 gene (1321N1-hP2X7); expressed in transfected cells
T1 sequence (Q99572 1-595): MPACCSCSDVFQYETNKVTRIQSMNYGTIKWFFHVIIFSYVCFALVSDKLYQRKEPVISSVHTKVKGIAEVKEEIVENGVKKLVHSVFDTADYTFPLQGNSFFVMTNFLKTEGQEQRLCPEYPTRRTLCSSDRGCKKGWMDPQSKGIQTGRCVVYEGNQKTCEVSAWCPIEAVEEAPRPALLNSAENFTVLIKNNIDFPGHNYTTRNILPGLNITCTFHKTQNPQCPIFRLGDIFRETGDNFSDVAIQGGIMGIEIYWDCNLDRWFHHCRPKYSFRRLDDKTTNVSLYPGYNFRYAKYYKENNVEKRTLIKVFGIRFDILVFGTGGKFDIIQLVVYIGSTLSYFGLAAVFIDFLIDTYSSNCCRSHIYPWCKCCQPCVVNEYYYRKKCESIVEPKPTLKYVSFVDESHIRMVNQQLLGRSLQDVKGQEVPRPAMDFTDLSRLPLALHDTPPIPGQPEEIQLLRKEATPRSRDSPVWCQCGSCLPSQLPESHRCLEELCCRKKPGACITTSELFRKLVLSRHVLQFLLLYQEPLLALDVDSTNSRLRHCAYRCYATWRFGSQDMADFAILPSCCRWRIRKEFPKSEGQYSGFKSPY
Briefly: Intracellular Calcium Flux (FLIPR) Assay. Type of data set: cell-based. Particulars: 1321N1 cells stably expressing human P2X7; agonist 100 μM BzATP; 20 min equilibration with antagonist; read-out: FLIPR pIC50 hP2X7-1321n1 (converted). As for the experimental part:
Stock solutions of compounds were prepared from powders as a 10 mM DMSO stock solution. These solutions were stored at RT during the two week period of these experiments to prevent freeze-thaw of the DMSO stocks. The DMSO stocks were added to the appropriate assay buffer at a concentration of 10 μM, and then diluted serially to the final concentrations that were tested. No observable precipitate was formed at any time during this process. The aqueous solutions of compounds as well as ATP (Sigma A7699) and BzATP (Sigma B6396) were prepared fresh for each day of experiment.
1321N1 cells stably expressing the full length human P2X7 gene (1321N1-hP2X7) and HEK293 cells stably expressing the full length rat P2X7 gene (HEK293-rP2X7) were obtained from the Roche Cell Culture Facility. 1321N1-hP2X7 cells were grown in Dulbecco's Modified Eagle's Medium (DMEM) high glucose supplemented with 10% FBS and 250 μg/mL G418. HEK293-rP2X7 cells were grown in DMEM/F-12 supplemented with 10% FBS, 1 mM CaCl2, 2 mM MgCl2, 2 mM L-Glutamine and 500 μg/ml G418. Cells were split such that they never became >70% confluent.
On the day prior to the experiment, 1321N1-hP2X7 or HEK293-rP2X7 cells were released into suspension with calcium-free PBS+Versene and washed by centrifugation with calcium-free PBS to remove the Versene. Cells were resuspended in growth medium at a density of 2.5×10^5 cells/mL and seeded into black walled, clear bottom 96 well plates (50,000 cells/well) approximately 18 hr prior to intracellular calcium flux experiments.
On the day of the experiment, plates were washed with FLIPR buffer (calcium- and magnesium-free Hank's Balanced Salt Solution (HBSS) supplemented with 10 mM Hepes, 2.5 mM probenecid and 2 mM calcium chloride) using a BIO-TEK 96 channel plate washer and incubated with […] fluo-3 dye at 37° C. for one hr. The dye was then removed by plate washing and the cells were allowed to equilibrate for 20 min at room temperature with antagonist or vehicle (FLIPR buffer). Agonist (100 μM BzATP final concentration for hP2X7; 5 μM BzATP final concentration or rP2X7) was added online with the FLIPR and fluorescence measurements made at 1 sec intervals for 60 sec followed by 3 sec intervals for a further 4 min (5 min total). A final addition of 5 μM ionomycin was made and the maximal BzATP-evoked fluorescence normalized to the maximal ionomycin-evoked fluorescence.
Background: Calcium flux is commonly read through the fluorescence of an indicator in the cells.

This note sets out measurements from patent US20120157494A1, “ISOINDOLYL COMPOUNDS” (priority 2010, published 2012).

`O=C(NCc1ccccc1OC(F)(F)F)[C@@H]1CCCN(c2cccc3c2C(=O)N(Cc2ccncc2)C3=O)C1` [Compound I-7, (R)-1-(1,3-Dioxo-2-pyridin-4-ylmethyl-2,3-dihydro-1H-isoindol-4-yl)-piperidine-3-carboxylic acid 2-trifluoromethoxy-benzylamide] showed a melting point of 197 to 198 °C. Moreover, the IC50 in data set [1] is 851 nM.
Consider `O=C(NCc1cccs1)[C@@H]1CCCN(c2cccc3c2C(=O)N(Cc2ccncc2)C3=O)C1` [Compound I-8, (R)-1-(1,3-Dioxo-2-pyridin-4-ylmethyl-2,3-dihydro-1H-isoindol-4-yl)-piperidine-3-carboxylic acid (thiophen-2-ylmethyl)-amide], for which the melting point lay in the range of 193 to 194 °C. Moreover, the IC50 in data set [1] was 437 nM.
For `O=C(NCC1CCCCC1)[C@@H]1CCCN(c2cccc3c2C(=O)N(Cc2ccncc2)C3=O)C1` [Compound I-15, (R)-1-(1,3-Dioxo-2-pyridin-4-ylmethyl-2,3-dihydro-1H-isoindol-4-yl)-piperidine-3-carboxylic acid cyclohexylmethyl-amide], in that order: 172 to 173 °C and 708 nM.

As a reminder, the melting point is the temperature of the solid-liquid transition.
